Experimental data published in patent publication US10743540B2, “3-amino-1,2,4-triazine derivatives and their use for controlling undesired plant growth” (BAYER CROPSCIENCE AKTIENGESELLSCHAFT, priority 2016, dated 2020).

Tests used:
Format in all cases: in vivo
STEME: Stellaria media [1] = assay: Pre-emergence herbicidal effect; conditions: application rate 320 g/ha, scored visually after 3 weeks, 100% = plants have died, 0% = like control plants
Source text: (§1) 1. Pre-Emergence Herbicidal Effect and Crop Plant Compatibility Seeds of monocotyledonous and dicotyledonous weed plants and crop plants are laid out in sandy loam soil in wood-fiber pots and covered with soil. The compounds of the invention, formulated in the form of wettable powders (WP) or as emulsion concentrates (EC), are then applied to the surface of the covering soil as aqueous suspension or emulsion at a water application rate equating to 600 to 800 L/ha with addition of 0.2% wetting agent. After the treatment, the pots are placed in a greenhouse and kept under good growth conditions for the trial plants. The damage to the test plants is scored visually after a test period of 3 weeks by comparison with untreated controls (herbicidal activity in percent (%): 100% activity=the plants have died, 0% activity=like control plants). [table]

VERPE: Veronica persica [2] = assay: Pre-emergence herbicidal effect; conditions: application rate 320 g/ha, scored visually after 3 weeks, 100% = plants have died, 0% = like control plants
Source text: as §1

[3] = system: ECHCG: Echinochloa crus-galli; assay: Pre-emergence herbicidal effect; conditions: application rate 320 g/ha, scored visually after 3 weeks, 100% = plants have died, 0% = like control plants
Source text: as §1

[4] = system: MATIN: Matricaria inodora; assay: Pre-emergence herbicidal effect; conditions: application rate 320 g/ha, scored visually after 3 weeks, 100% = plants have died, 0% = like control plants
Source text: as §1

STEME: Stellaria media [5] = assay: Post-emergence herbicidal effect; conditions: application rate 320 g/ha, treated at one-leaf stage, assessed visually after about 3 weeks, 100% = plants have died
Protocol: (§2) [table] 2. Post-Emergence Herbicidal Effect and Crop Plant Compatibility Seeds of monocotyledonous and dicotyledonous weed and crop plants are laid out in sandy loam soil in wood-fiber pots, covered with soil and cultivated in a greenhouse under good growth conditions. 2 to 3 weeks after sowing, the test plants are treated at the one-leaf stage. The compounds of the invention, formulated in the form of wettable powders (WP) or as emulsion concentrates (EC), are then sprayed onto the green parts of the plants as aqueous suspension or emulsion at a water application rate equating to 600 to 800 L/ha with addition of 0.2% wetting agent. After the test plants have been left to stand in the greenhouse under optimal growth conditions for about 3 weeks, the action of the preparations is assessed visually in comparison to untreated controls (herbicidal action in percent (%): 100% activity=the plants have died, 0% activity=like control plants).

VERPE: Veronica persica [6] = assay: Post-emergence herbicidal effect; conditions: application rate 320 g/ha, treated at one-leaf stage, assessed visually after about 3 weeks, 100% = plants have died
Protocol: as §2

VIOTR: Viola tricolor = assay: Post-emergence herbicidal effect; conditions: application rate 320 g/ha, treated at one-leaf stage, assessed visually after about 3 weeks, 100% = plants have died
Protocol: as §2

[7] = system: POLCO: Polygonum convolvulus; assay: Pre-emergence herbicidal effect; conditions: application rate 320 g/ha, scored visually after 3 weeks, 100% = plants have died, 0% = like control plants
Source text: as §1

Row | SMILES | Herbicidal activity with respect to [%] STEME (STEME: Stellaria media [1]) | Herbicidal activity with respect to [%] VERPE (VERPE: Veronica persica [2]) | Herbicidal activity with respect to [%] ECHCG [3] | Herbicidal activity with respect to [%] MATIN [4] | Herbicidal activity with respect to [%] STEME (STEME: Stellaria media [5]) | Herbicidal activity with respect to [%] VERPE (VERPE: Veronica persica [6]) | Herbicidal activity with respect to [%] VIOTR (VIOTR: Viola tricolor) | Herbicidal activity with respect to [%] POLCO [7]
1 | CC(C)(C)c1nnc(NC2CCOc3ccccc32)nc1N (racemic) [Example 1.8] | 80% | 100% | – | – | – | – | – | –
2 | Clc1nnc(NC2CCCc3ccccc32)nc1NC1CC1 (racemic) [Example 1.10] | 80% | – | – | – | – | – | – | –
3 | Clc1nnc(NC2CCOc3ccccc32)nc1NC1CC1 (racemic) [Example 1.14] | 90% | – | – | – | – | – | – | –
4 | CNC(=O)c1nnc(NC2CCc3ccccc32)nc1N (racemic) [Example 1.35] | – | 100% | – | – | – | – | – | –
5 | Nc1nc(NC2COc3ccccc32)nnc1C(F)(F)F (racemic) [Example 1.48] | 100% | 100% | 100% | 100% | 100% | 80% | – | –
6 | N#Cc1nnc(NC2CCCc3cc(F)ccc32)nc1N (racemic) [Example 1.63] | 100% | – | – | – | – | – | – | –
7 | Nc1nc(NC2c3ccccc3CC2O)nnc1C(F)(F)F (racemic) [Example 1.84] | 100% | 100% | – | – | – | 80% | 90% | –
8 | Cc1ccc2c(c1)[C@H](Nc1nnc(Cl)c(NC3CC3)n1)[C@@H](C)C2 [Example 1.2] | 100% | 100% | – | 90% | – | – | – | –
9 | CC(C)(C)c1nnc(N[C@@H]2CCCc3ccccc32)nc1N [Example 1.5] | – | 100% | – | 90% | – | 80% | – | –
10 | Cc1ccc2c(c1)[C@H](Nc1nnc(C(C)(C)C)c(N)n1)[C@@H](C)C2 [Example 1.6] | – | 100% | – | 90% | – | 80% | 80% | –
11 | CC(C)(C)c1nnc(N[C@@H]2CCc3ccccc32)nc1N [Example 1.7] | – | 100% | – | 90% | – | 90% | – | –
12 | CC(=O)c1nnc(N[C@@H]2CCc3ccccc32)nc1N [Example 1.29, 1-[5-Amino-3-[(1R)-2,3-dihydro-1H-inden-1-ylamino]-1,2,4-triazin-6-yl]ethanone] | 90% | 90% | – | 100% | 90% | – | 80% | 80%
13 | CC(=O)c1nnc(N[C@@H]2CCCc3ccccc32)nc1N [Example 1.30] | 100% | 100% | 80% | 100% | 80% | 80% | – | 100%
14 | CCOC(=O)c1nnc(N[C@@H]2CCc3ccccc32)nc1N [Example 1.33] | 100% | 100% | 80% | 100% | – | 80% | – | 100%
15 | CNC(=O)c1nnc(N[C@@H]2CCCc3ccccc32)nc1N [Example 1.34, 5-Amino-N-methyl-3-[(1R)-1,2,3,4-tetrahydronaphthalen-1-ylamino]-1,2,4-triazine-6-carboxamide] | – | – | – | – | – | 90% | – | –
16 | N#Cc1nnc(N[C@@H]2CCc3ccccc32)nc1N [Example 1.38] | 100% | 100% | 80% | – | – | – | 90% | –
17 | CCOC(=O)CCNC(=O)c1nnc(N[C@H]2c3cc(C)ccc3C[C@@H]2C)nc1N [Example 1.42] | 100% | 80% | – | – | – | – | – | –
18 | CCOC(=O)CNC(=O)c1nnc(N[C@H]2c3cc(C)ccc3C[C@@H]2C)nc1N [Example 1.43] | 100% | 100% | – | 100% | – | 80% | 80% | –
19 | CCCS(=O)(=O)NC(=O)c1nnc(N[C@H]2c3cc(C)ccc3C[C@@H]2C)nc1N [Example 1.53] | 100% | 100% | – | – | – | 80% | – | –
20 | Cc1ccc2c(c1)[C@H](Nc1nnc(C(=O)NS(=O)(=O)c3ccccc3)c(N)n1)[C@@H](C)C2 [Example 1.55] | 100% | 90% | – | – | – | 80% | 80% | –
21 | Cc1ccc2c(c1)[C@H](Nc1nnc(C(=O)NS(=O)(=O)c3ccc([N+](=O)[O-])cc3)c(N)n1)[C@@H](C)C2 [Example 1.56] | 100% | 100% | – | – | – | – | – | –
22 | Cc1ccc2c(c1)[C@H](Nc1nnc(C(=O)NS(=O)(=O)C(F)(F)F)c(N)n1)[C@@H](C)C2 [Example 1.57] | 100% | 100% | – | – | – | 80% | – | –
23 | Cc1ccc2c(c1)[C@@H](Nc1nnc(C#N)c(N)n1)CC2 [Example 1.61] | 80% | – | – | – | – | – | – | –
24 | Cc1ccc2c(c1)[C@H](Nc1nnc(C(=O)O)c(N)n1)CC2 [Example 1.75] | – | – | – | – | 100% | – | – | –
25 | Cc1ccc2c(c1)[C@H](Nc1nnc(-c3ccc(Cl)cc3)c(N)n1)[C@@H](C)C2 [Example 1.79, 6-(4-Chlorophenyl)-N^3-[(1R,2S)-2,6-dimethyl-2,3-dihydro-1H-inden-1-yl]-1,2,4-triazine-3,5-diamine] | 100% | 100% | – | – | – | – | – | –
26 | C=Cc1nnc(N[C@H]2c3cc(C)ccc3C[C@@H]2C)nc1N [Example 1.80] | 100% | 100% | – | – | – | – | 100% | –
27 | C=C(c1nnc(N[C@H]2c3cc(C)ccc3C[C@@H]2C)nc1N)C(F)(F)F [Example 1.81] | 100% | 100% | 100% | 100% | – | – | 80% | 100%
28 | CS(=O)(=O)c1nnc(NC2c3ccccc3CC2O)nc1N (stereo not shown) [Example 1.87] | 100% | 90% | – | – | – | – | – | –
29 | Cc1ccc2c(c1)[C@H](Nc1nnc(C(C)(C)O)c(N)n1)[C@@H](C)C2 [Example 1.105] | 100% | 100% | 100% | 100% | – | 80% | 90% | 100%
